Measured values: patent US9206219B2, “17-hydroxy-17-pentafluorethyl-estra-4,9(10)-dien-11-aryl derivatives, methods for the production thereof and the use thereof for treating diseases” (Bayer Intellectual Property GmbH, priority 2009, dated 2015)

How the values were obtained:
[1] = biological target: T1, human progesterone receptor B (Homo sapiens, UniProt P06401); assay: Progesterone receptor-antagonistic action in stably transfected SK-N-MC cells, MMTV-LUC reporter (PR-B); format: cell-based; conditions: antagonistic potency vs 0.1 nmol/l promegestone, 24 hours
T1 construct: expressed in transfected cells; host or cells: SK-N-MC human neuroblastoma cells, stably transfected with pRChPR-B-neo and pMMTV-LUC
T1 sequence (P06401 1-933): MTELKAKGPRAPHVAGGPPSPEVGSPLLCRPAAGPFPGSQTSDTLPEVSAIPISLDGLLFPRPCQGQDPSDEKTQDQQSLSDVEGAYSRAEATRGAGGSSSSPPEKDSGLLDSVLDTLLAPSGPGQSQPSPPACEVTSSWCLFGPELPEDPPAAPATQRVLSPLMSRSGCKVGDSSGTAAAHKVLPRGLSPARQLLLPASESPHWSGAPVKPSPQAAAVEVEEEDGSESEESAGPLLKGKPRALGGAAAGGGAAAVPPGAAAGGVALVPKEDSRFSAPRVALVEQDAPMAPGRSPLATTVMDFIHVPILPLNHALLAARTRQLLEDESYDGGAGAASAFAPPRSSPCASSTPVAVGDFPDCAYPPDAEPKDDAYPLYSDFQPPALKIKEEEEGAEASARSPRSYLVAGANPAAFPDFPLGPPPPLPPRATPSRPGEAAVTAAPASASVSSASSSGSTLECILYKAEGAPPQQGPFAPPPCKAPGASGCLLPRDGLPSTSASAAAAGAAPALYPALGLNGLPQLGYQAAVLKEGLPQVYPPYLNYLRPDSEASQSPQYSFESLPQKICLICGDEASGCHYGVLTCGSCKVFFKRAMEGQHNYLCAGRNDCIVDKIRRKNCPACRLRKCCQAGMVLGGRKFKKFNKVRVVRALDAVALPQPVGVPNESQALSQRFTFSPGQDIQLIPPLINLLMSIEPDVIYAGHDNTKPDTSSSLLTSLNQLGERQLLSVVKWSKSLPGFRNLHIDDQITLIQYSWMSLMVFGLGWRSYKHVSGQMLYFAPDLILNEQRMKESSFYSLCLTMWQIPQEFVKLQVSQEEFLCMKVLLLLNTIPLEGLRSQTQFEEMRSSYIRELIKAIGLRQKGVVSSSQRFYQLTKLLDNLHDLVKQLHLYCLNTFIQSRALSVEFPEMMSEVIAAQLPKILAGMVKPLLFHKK
Summary of the method: (§1)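 Stably transfected SK-N-MC cells express human PR-B or PR-A plus MMTV-LUC. For antagonism they were co-treated with 0.1 nmol/l promegestone and compound (0.01 nmol/l upward) for 24 hours. Luciferase in lysates was read as RLU and reported as % efficacy and IC50.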

[2] = biological target: T2, human progesterone receptor A (Homo sapiens, UniProt P06401); assay: Progesterone receptor-antagonistic action in stably transfected SK-N-MC cells, MMTV-LUC reporter (PR-A); format: cell-based; conditions: antagonistic potency vs 0.1 nmol/l promegestone, 24 hours
T2 construct: expressed in transfected cells; host or cells: SK-N-MC human neuroblastoma cells, stably transfected with pRChPR-A-neo and pMMTV-LUC
T2 sequence (P06401 1-769 isoform P06401-2): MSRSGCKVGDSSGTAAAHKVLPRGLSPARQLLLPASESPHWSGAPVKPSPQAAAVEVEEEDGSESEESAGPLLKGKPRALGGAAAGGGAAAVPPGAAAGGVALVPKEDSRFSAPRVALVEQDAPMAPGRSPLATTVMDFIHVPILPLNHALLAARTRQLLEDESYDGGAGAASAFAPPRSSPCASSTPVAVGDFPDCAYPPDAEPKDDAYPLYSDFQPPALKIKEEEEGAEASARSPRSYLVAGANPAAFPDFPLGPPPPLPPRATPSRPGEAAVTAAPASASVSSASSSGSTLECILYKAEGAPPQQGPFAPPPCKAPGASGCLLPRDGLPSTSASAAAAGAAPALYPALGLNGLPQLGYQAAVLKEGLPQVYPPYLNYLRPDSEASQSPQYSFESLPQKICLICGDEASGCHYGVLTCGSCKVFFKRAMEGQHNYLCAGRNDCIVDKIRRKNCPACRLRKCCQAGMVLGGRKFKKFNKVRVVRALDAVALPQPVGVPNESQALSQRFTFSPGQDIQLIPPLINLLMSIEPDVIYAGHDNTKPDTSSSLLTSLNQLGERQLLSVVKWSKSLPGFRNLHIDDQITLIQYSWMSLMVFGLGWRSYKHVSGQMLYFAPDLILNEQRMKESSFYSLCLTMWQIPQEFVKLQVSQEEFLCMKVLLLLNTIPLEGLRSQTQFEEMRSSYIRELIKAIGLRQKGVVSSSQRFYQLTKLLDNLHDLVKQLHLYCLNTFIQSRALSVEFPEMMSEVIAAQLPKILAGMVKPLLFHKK
Summary of the method: as §1

[3] = Metabolic stability in human liver microsomes; format: in vitro ADME; conditions: calculated from liver microsome clearance
Experimental: (§2) Determination of Metabolic Stability in Human and Rat Liver Microsomes
Isolated human liver microsomes (HLM) were used to assess the metabolic stability of compounds of general formula I.
(§3) The incubations were conducted with 2.4 ml of HLM solution (protein content 0.5 mg/ml), 30 μl of the test compound (final concentration 1 μM) and 0.6 ml of the cofactor mixture (=NADPH-generating system composed of 3 IU glucose-6-phosphate dehydrogenase, 14.6 mg glucose-6-phosphate, 1.2 mg NADP) at 37° C. in 100 mM phosphate buffer at pH 7.4. Samples were taken at 6 time points (2-60 min) and precipitated with an equal volume of methanol, and the recovery of the test substances used in the supernatant was determined by LC-MS/MS analysis. The half-life of substance degradation determined therefrom was used to calculate what is called the intrinsic clearance of the substance in the liver microsome preparation. […] In addition, under the assumptions that (i) absorption of the test substance is 100%, and (ii) the first pass is completely reflected by liver microsome metabolism, a maximum oral bioavailability (Fmax) was calculated.

[4] = Metabolic stability in rat liver microsomes; format: in vitro ADME; conditions: calculated from liver microsome clearance
Experimental: as §2, §3

Row | IC50 [1] [nM] | IC50 [2] [nM] | Predicted Fmax (maximum oral bioavailability) [3] [%] | Predicted Fmax (maximum oral bioavailability) [4] [%] | SMILES
1 | 0.1 | 0.09 | 8.5 | 59 | CC(CO)(CO)c1ccc([C@H]2C[C@@]3(C)[C@@H](CC[C@@]3(O)C(F)(F)C(F)(F)F)[C@@H]3CCC4=CC(=O)CCC4=C32)cc1 [Example 15A, (8S,11R,13S,14S,17S)-17-hydroxy-11-[4-(2-hydroxy-1-hydroxymethyl-1-methylethyl)phenyl]-13-methyl-17-pentafluoroethyl-1,2,6,7,8,11,12,13,14,15,16,17-dodecahydrocyclopenta[a]phenanthren-3-one]
2 | 0.09 | 0.016 | 44 | 52 | CC(C)(O)c1ccc([C@H]2C[C@@]3(C)[C@@H](CC[C@@]3(O)C(F)(F)C(F)(F)F)[C@@H]3CCC4=CC(=O)CCC4=C32)cc1 [Example 5, (8S,11R,13S,14S,17S)-17-hydroxy-11-[4-(1-hydroxy-1-methylethyl)phenyl]-13-methyl-17-pentafluoroethyl-1,2,6,7,8,11,12,13,14,15,16,17-dodecahydrocyclopenta[a]phenanthren-3-one]
3 | 0.9 | 0.3 | 69 | 93 | C[C@]12C[C@H](c3ccc(-c4ccc(-c5nnn[nH]5)cc4)cc3)C3=C4CCC(=O)C=C4CC[C@H]3[C@@H]1CC[C@@]2(O)C(F)(F)C(F)(F)F [Example 29, (8S,11R,13S,14S,17S)-17-hydroxy-13-methyl-17-pentafluoroethyl-11-[4′-(1H-tetrazol-5-yl)biphenyl-4-yl]-1,2,6,7,8,11,12,13,14,15,16,17-dodecahydrocyclopenta[a]phenanthren-3-one]
